# Experiment: Interconversion experiments (slurry) to evaluate thermodynamic stability of Compound 1 at room temperature
# Type: physicochemical
# Conditions: agitated 16 days
# Procedure: Interconversion experiments were carried out to evaluate the thermodynamic stability of Compound 1 at room temperature. Three slurries were prepared by making saturated isopropanol solutions of Compound 1, filtering the solutions through 0.2 μm filters, and then adding an amount (in the form of crystals) of a polymorphic form of Compound 1. To the first slurry, equal amounts of both polymorph Form II and polymorph Form III (i.e., approximately 25 mg each) were added; to the second slurry, equal amounts of polymorph From I and polymorph Form III (i.e., approximately 25 mg each) were added; and to the third slurry, approximately 25 mg of polymorph Form III was added. The slurries were then agitated for 16 days. The resulting solids were collected by vacuum filtration, air-dried, and analyzed using XRPD.
smiles,measurement,setting,value
"CC(=O)N(C)c1cccc(-c2ccnc3c(C(=O)c4cccs4)cnn23)c1 [polymorph Form III, N-methyl-N-(3-{3-[2-thienylcarbonyl]-pyrazol-[1,5-α]-pyrimidin-7-yl}phenyl)acetamide]",solid form obtained from slurry (XRPD),saturated isopropanol slurry seeded with approx. 25 mg polymorph Form III alone,exclusively polymorph Form III
same,solid form obtained from slurry (XRPD),saturated isopropanol slurry seeded with equal amounts (approx. 25 mg each) of polymorph Form I and Form III,"polymorph Form III as the predominant product, with only a minor amount of polymorph Form I"
same,solid form obtained from slurry (XRPD),saturated isopropanol slurry seeded with equal amounts (approx. 25 mg each) of polymorph Form II and Form III,exclusively polymorph Form III

# From US7459458B2, “Polymorph of N-methyl-N-(3-{3-[2-thienylcarbonyl]-pyrazol-[1,5-α]-pyrimidin-7-yl}phenyl)acetamide and compositions and methods related thereto” (Neurocrine Biosciences, Inc., priority 2002, dated 2008)
